In patent publication US10499641B2 (priority 2010, dated 2019):

Legend:
[1] = system: Phytophthora infestans; assay type: in vivo; conditions: young tomato plants, sprayed, active ingredient concentration 100 ppm, inoculated 1 day after treatment, evaluation 7 days after inoculation; 100% = no infection
[2] = system: Plasmopara viticola; assay: Plasmopara test (grapevine)/protective; assay type: in vivo; conditions: young grapevine plants, sprayed, active ingredient concentration 10 ppm, evaluation 6 days after inoculation; 100% = no infection
Method: Plasmopara Test (Grapevine)/Protective
• Solvent: 24.5 parts by weight of acetone • 24.5 parts by weight of dimethylacetamide • Emulsifier: 1 part by weight of alkylaryl polyglycol ether
[To produce an appropriate active ingredient formulation, 1 part by weight of active ingredient is mixed with the specified amounts of solvent and emulsifier, and the concentrate is diluted with water to the desired concentration.
To test for protective efficacy, young plants are sprayed with the active ingredient formulation at the stated application rate. After the spray coating has dried on, the plants are inoculated with an aqueous spore suspension of Plasmopara viticola and then remain in an incubation cabin at approx. 20° C. and 100% relative air humidity for 1 day. Subsequently, the plants are placed in a greenhouse at approx. 21° C. and approx. 90% air humidity for 4 days. The plants are then moistened and placed in an incubation cabin for 1 day.
Evaluation follows 6 days after the inoculation. 0% means an efficacy which corresponds to that of the control, whereas an efficacy of 100% means that no infection is observed.
In this test, the following inventive compounds show, at an active ingredient concentration of 10 ppm, an efficacy of 70% or more: […]

With N#CCOc1cccc(F)c1C1CC(c2csc(C3CCN(C(=O)Cn4nc(C(F)F)cc4C(F)F)CC3)n2)=NO1 (stereo not drawn) [Example I-113] the Eff. % [1] was 85% and the Eff. % [2] was 100%.
With Cc1cc(C(F)(F)F)nn1CC(=O)N1CCC(c2nc(C3=NOC(c4cccc(F)c4OS(=O)(=O)C4CC4)C3)cs2)CC1 (stereo not drawn) [Example I-114] the Eff. % [1] was 94% and the Eff. % [2] was 100%.
O=C(Cn1nc(C(F)F)cc1C(F)F)N1CCC(c2nc(C3=NOC(c4ccccc4OS(=O)(=O)C(F)(F)F)C3)cs2)CC1 (stereo not drawn) [Example I-115] showed an Eff. % [1] of 88% and an Eff. % [2] of 100%.
For C=CC(=O)Oc1ccccc1C1CC(c2csc(C3CCN(C(=O)Cn4nc(C(F)F)cc4C(F)F)CC3)n2)=NO1 (stereo not drawn) [Example I-116], the Eff. % [1] was 98% and the Eff. % [2] was 100%.
C#CCN(C=O)c1ccccc1C1CC(c2csc(C3CCN(C(=O)Cn4nc(C(F)F)cc4C(F)F)CC3)n2)=NO1 (stereo not drawn) [Example I-117] gave an Eff. % [1] of 79% and an Eff. % [2] of 96%.
In the case of CON=Cc1cccc(F)c1C1CC(c2csc(C3CCN(C(=O)Cn4nc(C(F)(F)F)cc4C)CC3)n2)=NO1 (stereo not drawn) [Example I-118], the Eff. % [1] is reported as 95% and the Eff. % [2] is reported as 100%.
With CCS(=O)(=O)Oc1ccccc1C1CC(c2csc(C3CCN(C(=O)Cn4nc(C(F)(F)F)cc4C)CC3)n2)=NO1 (stereo not drawn) [Example I-119] the Eff. % [1] was 89% and the Eff. % [2] was 100%.
CSCOc1ccccc1C1CC(c2csc(C3CCN(C(=O)Cn4nc(C(F)(F)F)cc4C)CC3)n2)=NO1 (stereo not drawn) [Example I-120] gave an Eff. % [1] of 89% and an Eff. % [2] of 95%.
In the case of N#CCN(C=O)c1ccccc1C1CC(c2csc(C3CCN(C(=O)Cn4nc(C(F)F)cc4C(F)F)CC3)n2)=NO1 (stereo not drawn) [Example I-121], the Eff. % [1] is reported as 100% and the Eff. % [2] is reported as 98%.
With O=CNc1ccccc1C1CC(c2csc(C3CCN(C(=O)Nc4cc(C(F)F)ccc4C(F)F)CC3)n2)=NO1 (stereo not drawn) [Example I-122] the Eff. % [1] was 97% and the Eff. % [2] was 89%.
With O=CNc1ccccc1C1CC(c2csc(C3CCN(C(=O)Cc4cc(C(F)F)ccc4C(F)F)CC3)n2)=NO1 (stereo not drawn) [Example I-123] the Eff. % [1] was 100% and the Eff. % [2] was 73%.
Cc1cc(C(F)(F)F)nn1CC(=O)N1CCC(c2nc(C3=NOC(c4ccccc4OS(=O)(=O)C(F)(F)F)C3)cs2)CC1 (stereo not drawn) [Example I-125] gave an Eff. % [1] of 89% and an Eff. % [2] of 100%.
Compound CN(C)C(=S)c1ccccc1C1CC(c2csc(C3CCN(C(=O)Cn4nc(C(F)F)cc4C(F)F)CC3)n2)=NO1 (stereo not drawn) [Example I-127] has an Eff. % [1] of 97% and an Eff. % [2] of 96%.
Work on COC(=O)COc1ccc(C2CC(c3csc(C4CCN(C(=O)Cn5nc(C(F)F)cc5C(F)F)CC4)n3)=NO2)cc1 (stereo not drawn) [Example I-128] yielded an Eff. % [1] of 90% and an Eff. % [2] of 93%.
O=C(Oc1ccccc1C1CC(c2csc(C3CCN(C(=O)Cn4nc(C(F)F)cc4C(F)F)CC3)n2)=NO1)c1cccc(F)c1 (stereo not drawn) [Example I-129] was tested, and the Eff. % [1] was 98% and the Eff. % [2] was 98%.
For O=C(Oc1ccccc1C1CC(c2csc(C3CCN(C(=O)Cn4nc(C(F)F)cc4C(F)F)CC3)n2)=NO1)c1ccccc1F (stereo not drawn) [Example I-130], the Eff. % [1] was 100% and the Eff. % [2] was 100%.
In the case of O=C(Oc1ccccc1C1CC(c2csc(C3CCN(C(=O)Cn4nc(C(F)F)cc4C(F)F)CC3)n2)=NO1)c1ccccc1 (stereo not drawn) [Example I-131], the Eff. % [1] is reported as 100% and the Eff. % [2] is reported as 94%.
With O=C(Oc1ccccc1C1CC(c2csc(C3CCN(C(=O)Cn4nc(C(F)F)cc4C(F)F)CC3)n2)=NO1)c1ccc(F)cc1 (stereo not drawn) [Example I-132] the Eff. % [1] was 100% and the Eff. % [2] was 96%.
Compound C[Si](C)(C)C#Cc1ccccc1C1CC(c2csc(C3CCN(C(=O)Cn4nc(C(F)F)cc4C(F)F)CC3)n2)=NO1 (stereo not drawn) [Example I-133] has an Eff. % [1] of 100% and an Eff. % [2] of 85%.
C#CCOCc1ccccc1C1CC(c2csc(C3CCN(C(=O)Cn4nc(C(F)F)cc4C(F)F)CC3)n2)=NO1 (stereo not drawn) [Example I-138] was tested, and the Eff. % [1] was 93% and the Eff. % [2] was 98%.
Cc1cc(C(F)(F)F)nn1CC(=O)N1CCC(c2nc(C3=NOC(c4ccccc4OCC#N)C3)cs2)CC1 (stereo not drawn) [Example I-140] gave an Eff. % [1] of 84% and an Eff. % [2] of 100%.
